Experimental data reported in patent publication EP0235408B1, “Pharmaceutical composition and treatment” (THE UNIVERSITY OF TORONTO I[…], priority 1986, dated 1987).
Where “and” joins values, the source holds several entries; their conditions need not be identical. Identical values can stand only once. Counter-ions that a name gives are not always drawn. Marks after values point to notes of the source that are not given here.

Legend:
laboratory rats [1] = assay: Drug-induced sleep tracked by electroencephalograph (Example 4); assay type: in vivo; details: for induced sleep (duration): 500 mg per kilogram, EEG
Description: The preferred compound according to the invention was administered to labotatory rats, and the sleep of the animals induced by the drug was tracked by means of an electroencephalograph.
Compound ethyl 4-acetoxybutanoate, administered by mouth at a dosage of 250 mg per kilogram body weight induced sleep for 1 hour 28 minutes. At a dosage of 500 mg per kilogram administered in one case by mouth and in another case intraperitoneally, sleep was induced for 4 hours.
The administration to a similar laboratory rat, intraperitoneally, of a dosage of 500 mg per kilogram body weight of GHB induced sleep for only 1 hour 59 minutes, by contrast.

rats = assay: Effects on sleep and righting time, intraperitoneal administration (Example 6); details: 5 mM/kg body weight; for TIME SLEPT (mins) AVG 1: average based only on the animals which slept; for TIME SLEPT (mins): individual animals, asterisk = animal could be placed on its back for the time indicated, DNS = did not sleep
laboratory rats [2] = assay: Effects on sleep and righting time, oral administration (Example 5); assay type: in vivo; details: 10 mM/kg body weight; for TIME SLEPT (mins) AVG 1: average based only on the animals which slept
Description: The effects on sleep and- righting time of the oral and in traperitoneal administration of the prior art compound hydroxybutyrate sodium salt (GHB) and 4-acetoxybutanoate (EAB) according to the invention were determined, using groups of labotatory rats.
In a first experiment, GHB was administered at high dosage level (25 mM/Kg or 3 g/kg body weight) orally to three animals. […] The most likely reason is that oral GHB is poorly absorbed.
In a second experiment each of GHB and EAB was given to separate groups of twelve and eleven animals respectively, by oral administration at the same, lower dosage level of 10 mM/kg body weight.

[3] = Toxicity in animal models; details: rat, in vivo; laboratory rats; read-out: dose required before a toxic level is reached
Description: In tests conducted in animal models, the compound ethyl 4-acetoxybutanoate has evidenced extremely low levels of toxicity. In tests conducted with laboratory rats as reported below, doses as high as 3000 mg per kilogram body weight are required, before a toxic level is reached.

[4] = 250 or 500 mg per kilogram, by mouth or intraperitoneally
[5] = individual animals, asterisk = animal could be placed on its back for the time indicated, DNS = did not sleep
[6] = average of all the rats, whether they slept or not

CCOC(=O)CCCOC(C)=O [EAB, ethyl 4-acetoxybutanoate]
ill effects upon waking (laboratory rats [1]; [4]): none of the animals exhibited ill effects | muscle relaxation during sleep (laboratory rats [1]; [4]): the limbs and other body joints were quite flaccid | induced sleep (duration) (laboratory rats [1]; by mouth): 4 h | induced sleep (duration) (laboratory rats [1]; intraperitoneally): 4 h | TIME SLEPT (mins) RANGE (rats): 39.30 to 259.00 min | ill effects upon waking (rats): none of them showed any ill effects | muscle relaxation during sleep (rats): exhibited a high degree of muscle relaxation | TIME SLEPT (mins) AVG 1 (rats): 126.89 min | TIME SLEPT (mins) (rats): 51.70* mins and 39.30* mins and 199.65* mins and 141.70* mins and 70.00* mins and 259.00* mins | TIME SLEPT (mins) RANGE (laboratory rats [2]): 103.9 to 331.6 min | animals put to sleep (laboratory rats [2]): put all rats to sleep | animals that could be placed on their backs (laboratory rats [2]): four of eleven could be placed on their backs for more than five hours | ill effects upon waking (laboratory rats [2]): none of the animals exhibited any ill effects | muscle relaxation during sleep (laboratory rats [2]): loose and flaccid | sign of toxicity (laboratory rats [2]): No sign of toxicity was observed | TIME SLEPT (mins) AVG 1 (laboratory rats [2]): 170.57 min | TIME SLEPT (laboratory rats [2]; [5]): 103.90 min and 120.30 min and 106.10 min and 125.75 min and 143.45 min and 120.00 min and 175.80 min | TIME SLEPT (mins) (laboratory rats [2]; [5]): 331.60* mins and 311.50* mins and 317.65* mins and 300.20* mins | NOAEL [3]: ≥ 3000 mg/kg

O=C(O)CCCO [GHB, hydroxybutyrate sodium salt, reference compound]
TIME SLEPT (mins) RANGE (rats): 0 to 87.35 min | TIME SLEPT (mins) AVG 1 (rats): 72.04 min | TIME SLEPT (mins) AVG 2 (rats; [6]): 48.03 min | TIME SLEPT (mins) (rats; sodium salt): 70.20* mins and 55.40* mins and 75.20* mins and 87.35* mins | TIME SLEPT (mins) RANGE (laboratory rats [2]): 0 to 74.7 min | TIME SLEPT (mins) AVG 1 (laboratory rats [2]): 65.76 min | TIME SLEPT (mins) AVG 2 (laboratory rats [2]; [6]): 27.40 min | TIME SLEPT (laboratory rats [2]; individual animals, asterisk = animal could be placed on its back for the time indicated, DNS = did not sleep, sodium salt): 72.80 min and 64.70 min and 60.80 min and 55.80 min and 74.70 min
